Experimental data reported in patent publication US10501482B2, “Compounds for treating spinal muscular atrophy” (Hoffmann-La Roche Inc., priority 2013, dated 2019).
Where a name gives a salt, the structure may show the parent alone.

Key:
[1] = test system: full length SMN2 minigene mRNA (FL SMN2mini) in HEK293H cells stably transfected with the SMN2-A minigene construct; test: SMN2 minigene mRNA splicing RT-qPCR assay in cultured cells; format: cell-based; conditions: Homo sapiens, HEK293-H, 24 hours, 7-point concentration curve, concentration giving 1.5-fold FL SMN2mini mRNA vs vehicle, read-out: EC1.5x minigene (EC1.5x concentration for production of full length SMN2 minigene mRNA)
Method: The reverse transcription-quantitative PCR-based (RT-qPCR) assay is used to quantify the level of the full length SMN2 minigene (referred to herein by the term “FL SMN2mini”) mRNA containing SMN2 exon 7 in a HEK293H cell line stably transfected with said minigene and treated with a test compound.
The SMN2-A minigene construct was prepared as described in International Patent Application WO2009/151546A1 page 145 paragraph [00400] to page 147 paragraph [00412](incl. FIG. 1 and FIG. 3 therein).
HEK293H cells stably transfected with the SMN2-A minigene construct (10,000 cells/well) are seeded in 200 μL of cell culture medium (DMEM plus 10% FBS, with 200 μg/mL hygromycin) in 96-well flat-bottom plates and the plate is immediately swirled to ensure proper dispersal of cells and the formation of an even monolayer of cells. Cells are allowed to attach for 6 hours. […] A solution of test compound (1 μL, 200× in DMSO) is added to each cell-containing well and the plate is incubated for 24 hours in a cell culture incubator (37° C., 5% CO2, 100% relative humidity). 2 replicates are prepared for each test compound concentration. The cells are then lysed in the Cells-To-Ct lysis buffer and the lysate is stored at −80° C.
Full length SMN2-A minigene and GAPDH mRNA are quantified using the primers and probes referenced in Table 1. Primer SMN Forward A (SEQ ID NO.1) hybridizes to a nucleotide sequence in exon 7 (nucleotide 22 to nucleotide 40), primer SMN Reverse A (SEQ ID NO.2) hybridizes to a nucleotide sequence in the coding sequence of Firefly luciferase, SMN Probe A (SEQ ID NO.3) hybridizes to a nucleotide sequence in exon 7 (nucleotide 50 to nucleotide 54) and exon 8 (nucleotide 1 to nucleotide 21). The combination of these three oligonucleotides detects only SMN1 or SMN2 minigenes (RT-qPCR) and will not detect endogenous SMN1 or SMN2 genes.
The SMN forward and reverse primers are used at final concentrations of 0.4 μM. The SMN probe is used at a final concentration of 0.15 μM. The GAPDH primers are used at final concentrations of 0.2 μM and the probe at 0.15 μM.
The SMN2-minigene GAPDH mix (15 μL total volume) is prepared by combining 7.5 μL of 2×RT-PCR buffer, 0.4 μL of 25×RT-PCR enzyme mix, 0.75 μL of 20×GAPDH primer-probe mix, 4.0075 μL of water, 2 μL of 10-fold diluted cell lysate, 0.06 μL of 100 μM SMN forward primer, 0.06 μL of 100 μM SMN reverse primer, and 0.225 μL of 100 μM SMN probe.
PCR is carried out at the following temperatures for the indicated time: Step 1: 48° C. (15 min); Step 2: 95° C. (10 min); Step 3: 95° C. (15 sec); Step 4: 60° C. (1 min); then repeat Steps 3 and 4 for a total of 40 cycles.
Each reaction mixture contains both SMN2-A minigene and GAPDH primers/probe sets (multiplex design), allowing simultaneous measurement of the levels of two transcripts.
The increase in the abundance of the FL SMN2mini mRNA relative to that in cells treated with vehicle control is determined from real-time PCR data using a modified ΔΔCt method (as described in Livak and Schmittgen, Methods, 2001, 25:402-8). The amplification efficiency E is calculated from the slope of the amplification curve for FL SMN2mini and GAPDH individually. The abundance of FL SMN2mini and GAPDH mRNA are then calculated as (1+E)^−Ct, where Ct is the threshold value for each amplicon. The abundance of FL SMN2mini mRNA is normalized to GAPDH mRNA abundance. The normalized FL SMN2mini mRNA abundance from test compound-treated samples is then divided by normalized FL SMN2mini mRNA abundance from vehicle-treated cells to determine the level of FL SMN2mini mRNA relative to vehicle control.
Table 2 provides EC1.5x concentrations for production of full length SMN2 minigene mRNA that was obtained from the 7-point concentration data generated according to the above procedure for particular compounds of the present invention.

SMN protein = SMN protein assay (HTRF) in cultured SMA patient fibroblast cells; format: cell-based; conditions: SMA Type 1 human fibroblasts GM03813, 48 hours; for EC1.5x SMN protein (EC1.5x concentration for SMN protein expression): 7-point concentration curve, concentration giving 1.5 times SMN protein vs vehicle; for max. fold increase (maximum fold increase of SMN protein): 7-point concentration data, fold vs vehicle control
Method: The SMN HTRF (homogeneous time resolved fluorescence) assay is used to quantify the level of SMN protein in SMA patient fibroblast cells treated with test compounds.
Cells are thawed and cultured in DMEM-10% FBS for 72 hours. Cells are trypsinized, counted and re-suspended to a concentration of 25,000 cells/mL in DMEM-10% FBS. The cell suspensions are plated at 5,000 cells per well in a 96 well microtiter plate and incubated for 3 to 5 hours. […] 1 μL of test compound solution is transferred to cell-containing wells and cells are incubated for 48 hours in a cell culture incubator (37° C., 5% CO2, 100% relative humidity). Triplicate samples are set up for each test compound concentration. After 48 hours, the supernatant is removed from the wells and 25 μL of the RIPA lysis buffer, containing protease inhibitors, is added to the wells and incubated with shaking at room temperature for 1 hour. 25 μL of the diluent is added and then 35 μL of the resulting lysate is transferred to a 384-well plate, where each well contains 5 μL of the antibody solution (1:100 dilution of anti-SMN d2 and anti-SMN kryptate in SMN reconstitution buffer). The plate is centrifuged for 1 minute to bring the solution to the bottom of the wells, then incubated overnight at room temperature. Fluorescence for each well of the plate at 665 nm and 620 nm is measured on an EnVision multilabel plate reader (Perkin-Elmer).
The normalized fluorescence signal is calculated for each sample, Blank and vehicle control well by dividing the signal at 665 nm by the signal at 620 nm. Normalizing the signal accounts for possible fluorescence quenching due to the matrix effect of the lysate. The ΔF value (a measurement of SMN protein abundance as a percent value) for each sample well is calculated by subtracting the normalized average fluorescence for the Blank control wells from the normalized fluorescence for each sample well, then dividing this difference by the normalized average fluorescence for the Blank control wells and multiplying the resulting value by 100. The ΔF value for each sample well represents the SMN protein abundance from test compound-treated samples. The ΔF value for each sample well is divided by the ΔF value for the vehicle control wells to calculate the fold increase in SMN protein abundance relative to the vehicle control. Table 3 provides EC1.5x concentrations for SMN protein expression that was obtained from the 7-point concentration data generated according to the above procedure for particular compounds of the present invention.
Table 4 provides the maximum fold increase of SMN protein that was obtained from the 7-point concentration data generated according to the above procedure for particular compounds of the present invention

For `Cc1cn2cc(NC(=O)c3ccc(N4CCNCC4)cn3)nc2c(C)n1` [Example 11, N-(6,8-dimethyl-imidazo[1,2-a]-pyrazin-2-yl)-5-(piperazin-1-yl)picolinamide], the EC (1.5-fold) [1] was 0.297 µM, the “EC1.5x SMN protein (EC1.5x concentration for SMN protein expression)” value (from here on “EC1.5x SMN protein”) (SMN protein) was 0.321 µM and the “max. fold increase (maximum fold increase of SMN protein)” value (from here on “max. fold increase”) (SMN protein) was 1.7143.
In the case of `Cc1cn2cc(NC(=O)c3ccc(C4=CCNCC4)cn3)ccc2n1` [Example 63, N-(2-methyl-imidazo[1,2-a]-pyridin-6-yl)-5-(1,2,3,6-tetra-hydropyridin-4-yl)picolinamide dihydrochloride], the EC (1.5-fold) [1] is reported as 0.16 µM, the “EC1.5x SMN protein” value (SMN protein) is reported as 1.0431 µM and the “max. fold increase” value (SMN protein) is reported as 1.6807.
In the case of `Cc1nc2c(F)cc(NC(=O)c3ccc(N4CCN5CCC[C@@H]5C4)cc3F)cc2o1` [Example 34, (R)-2-fluoro-N-(4-fluoro-2-methyl-benzo[d]oxazol-6-yl)-4-(hexahydro-pyrrolo[1,2-a]-pyrazin-2(1H)-yl)benzamide], the EC (1.5-fold) [1] is reported as 0.328 µM, the “EC1.5x SMN protein” value (SMN protein) is reported as 0.7793 µM and the “max. fold increase” value (SMN protein) is reported as 1.6527.
With `Cc1cn2cc(NC(=O)c3ccc(C4=CCNCC4)nc3)ccc2n1.Cl` [Example 77, N-(2-methylimidazo[1,2-a]pyridin-6-yl)-6-(1,2,3,6-tetrahydropyridin-4-yl)nicotinamide hydrochloride] the EC (1.5-fold) [1] was 0.0641 µM, the “EC1.5x SMN protein” value (SMN protein) was 0.2279 µM and the “max. fold increase” value (SMN protein) was 1.6649.
For `Cc1cn2cc(NC(=O)c3ccc(C4CCN(C)CC4)nc3)cc(F)c2n1` [Example 80, N-(8-fluoro-2-methylimidazo[1,2-a]pyridin-6-yl)-6-(1-methylpiperidin-4-yl)nicotinamide], the EC (1.5-fold) [1] was 0.115 µM, the “EC1.5x SMN protein” value (SMN protein) was 0.52 µM and the “max. fold increase” value (SMN protein) was 1.5928.
`Cc1nc2c(F)cc(NC(=O)c3ccc(N4CCNC(C)C4)nc3)cc2o1` (racemic) [Example 27, rac-N-(4-Fluoro-2-methylbenzo-oxazol-6-yl)-6-(3-methylpiperazin-1-yl)nicotinamide] was tested, and the EC (1.5-fold) [1] was 0.0989 µM, the “EC1.5x SMN protein” value (SMN protein) was 0.3964 µM and the “max. fold increase” value (SMN protein) was 1.6617.
For `Cc1cn2cc(NC(=O)c3ccc(N4CCNC(C)C4)nc3)nc2c(C)n1` (racemic) [Example 7, rac-N-(6,8-dimethyl-imidazo[1,2-a]-pyrazin-2-yl)-6-(3-methyl-piperazin-1-yl)nicotinamide], the EC (1.5-fold) [1] was 0.142 µM, the “EC1.5x SMN protein” value (SMN protein) was 0.2834 µM and the “max. fold increase” value (SMN protein) was 1.7936.
In the case of `Cc1cn2cc(NC(=O)c3ccc(N4CCNC(C)C4)c(F)c3F)cc(F)c2n1` (racemic) [Example 45, rac-2,3-difluoro-N-(8-fluoro-2-methylimidazo[1,2-a]pyridin-6-yl)-4-(3-methylpiperazin-1-yl)benzamide hydrochloride], the EC (1.5-fold) [1] is reported as 0.0615 µM, the “EC1.5x SMN protein” value (SMN protein) is reported as 0.5147 µM and the “max. fold increase” value (SMN protein) is reported as 1.6445.
In the case of `Cc1cn2cc(NC(=O)c3ccc(C4CCN(C)CC4)nc3)ccc2n1` [Example 78, N-(2-methylimidazo[1,2-a]pyridin-6-yl)-6-(1-methylpiperidin-4-yl)nicotinamide], the EC (1.5-fold) [1] is reported as 0.622 µM, the “EC1.5x SMN protein” value (SMN protein) is reported as 1.013 µM and the “max. fold increase” value (SMN protein) is reported as 1.7897.
`Cc1nc2ccc(NC(=O)c3ccc(N4CCNC(C)C4)cc3F)cc2o1` (racemic) [Example 38, rac-2-fluoro-N-(2-methylbenzo[d]-oxazol-6-yl)-4-(3-methylpiperazin-1-yl)benzamide dihydrochloride] was tested, and the EC (1.5-fold) [1] was 0.472 µM, the “EC1.5x SMN protein” value (SMN protein) was 0.6124 µM and the “max. fold increase” value (SMN protein) was 1.8706.
With `Cc1cn2cc(NC(=O)c3c(F)cc(N4CCNC(C)C4)cc3F)cc(F)c2n1.Cl` (racemic) [Example 49, rac-2,6-difluoro-N-(8-fluoro-2-methyl-imidazo[1,2-a]-pyridin-6-yl)-4-(3-methylpiperazin-1-yl)benzamide hydrochloride] the EC (1.5-fold) [1] was 0.0107 µM, the “EC1.5x SMN protein” value (SMN protein) was 0.1733 µM and the “max. fold increase” value (SMN protein) was 1.658.
`Cc1cn2cc(NC(=O)c3ccc(N4CCNCC4)nc3)cc(F)c2n1` [Example 41, N-(8-tluoro-2-methylimidazo-[1,2-a]pyridin-6-yl)-6-(piperazin-1-yl)nicotinamide dihydrochloride] was tested, and the “EC1.5x SMN protein” value (SMN protein) was 0.0508 µM and the “max. fold increase” value (SMN protein) was 1.7973.
`CCOc1cc(N2CCNCC2)ncc1C(=O)Nc1cc(F)c2nc(C)cn2c1` [Example 70, 4-ethoxy-N-(8-fluoro-2-methylimidazo[1,2-a]pyridin-6-yl)-6-(piperazin-1-yl)nicotinamide] was tested, and the “EC1.5x SMN protein” value (SMN protein) was 0.0187 µM and the “max. fold increase” value (SMN protein) was 1.933.
For `Cc1nc2c(F)cc(NC(=O)c3ccc(N4CCN5CCC[C@H]5C4)cc3F)cc2o1` [Example 33, (S)-2-Fluoro-N-(4-fluoro-2-methyl-benzooxazol-6-yl)-4-(S)-hexahydro-pyrrolo[1,2-a]-pyrazin-2-yl-benzamide], the “EC1.5x SMN protein” value (SMN protein) was 0.5703 µM and the “max. fold increase” value (SMN protein) was 1.7541.
